In patent US6608082B1, “Treatment of erectile dysfunction using isoquinoline compound melanocortin receptor ligands” (Lion Bioscience AG, priority 1998, dated 2003):
Read-outs that look alike come from different tables or passages of the source.

Molecular target: T1, MCR-1 (Homo sapiens, UniProt Q01726)
T1 construct: expressed in transfected cells; host or cells: HEK 293
Test: Melanocortin receptor binding assay, competition with 125I-HP 467, HEK 293 cells expressing hMCR-1
Conditions: for % Disp. MC-1 10 μM: displacement of 125I-HP 467 at 10 μM isoquinoline compound; for IC50: read-out: MC-1 IC50; for % Disp. of 125I-HP 467 (first of duplicate) / % Disp. of 125I-HP 467 (second of duplicate): 10 μM isoquinoline compound; for % Disp. of 125I-HP 467 (first of duplicate): HEK 293 cells expressing MCR-1, duplicate 1; for % Disp. of 125I-HP 467 (second of duplicate): HEK 293 cells expressing MCR-1, duplicate 2
Experimental: All cell culture media and reagents were obtained from GibcoBRL (Gaithersburg Md.), except for COSMIC CALF SERUM (HyClone; Logan Utah).
Cells were suspended in PBS, 10% COSMIC CALF SERUM and 1 mM CaCl2. Cell suspensions were prepared at a density of 2×10^4 cells/ml for HEK 293 cells expressing hMCR-3, hMCR-4 or hMCR-5, and 1×10^5 cells/ml for HEK 293 cells expressing hMCR-1. Suspensions were placed in a water bath and allowed to warm to 37° C. for 1 hr.
Binding assays were performed in a total volume of 250 μl for HEK 293 cells. […] To each tube was added 4×10^3 HEK 293 cells expressing hMCR-3, hMCR-4 or hMCR-5, or 2×10^4 cells expressing hMCR-1. Assays were incubated for 2.5 hr at 37° C.
GF/B filter plates were prepared by soaking for at least one hour in 5 mg/ml BSA and 10 mM CaCl2. Assays were filtered using a Brandel 96-well cell harvester (Brandel Inc.; Gaithersburg, Md.). The filters were washed four times with cold 50 mM Tris, pH 7.4, the filter plates were dehydrated for 2 hr and 35 μl of MICROSCINT was added to each well. Filter plates were counted using a Packard Topcount (Packard Instrument Co.) and data analyzed using GraphPad PRISM v2.0 (GraphPad Software Inc.; San Diego Calif.) and Microsoft EXCEL v5.0a (Microsoft Corp.; Redmond Wash.).
To assay isoquinoline compounds, binding assays were performed in duplicate in a 96 well format. […] A 0.2 ml aliquot of suspended cells was added to each well to give the cell numbers indicate above, and the cells were incubated at 37° C. for 2.5 hr. Cells were harvested on GF/B filter plates as described above and counted.

[1] = competition with 125I-HP 467, HEK 293 cells expressing MCR-1
[2] = inhibition of binding of 125I-HP 467, HEK 293 cells expressing MCR-1

T1 sequence (Q01726 whole entry): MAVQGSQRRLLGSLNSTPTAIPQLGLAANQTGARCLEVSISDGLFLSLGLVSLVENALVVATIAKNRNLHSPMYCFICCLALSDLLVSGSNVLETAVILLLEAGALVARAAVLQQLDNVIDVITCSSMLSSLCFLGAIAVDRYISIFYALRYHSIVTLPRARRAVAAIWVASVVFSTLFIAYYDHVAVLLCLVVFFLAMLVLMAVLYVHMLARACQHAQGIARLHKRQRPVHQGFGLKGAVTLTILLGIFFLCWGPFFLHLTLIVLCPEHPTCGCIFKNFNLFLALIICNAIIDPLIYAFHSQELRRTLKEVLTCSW

CNC(CN)CN1Cc2ccccc2C(CNC2CCCCC2)C1c1cccc(Br)c1 (stereo not shown) [TRG 2405-127]
% Disp. MC-1 10 μM (first of duplicate): 50.6%
% Disp. MC-1 10 μM (second of duplicate): 60.3%

CCCOc1ccc(C2C(CNC3CCCCC3)c3ccccc3CN2CCN)cc1 (stereo not shown) [TRG 2405-73]
% Disp. MC-1 10 μM (first of duplicate): 60.1%
% Disp. MC-1 10 μM (second of duplicate): 60.5%

COCCNC(CN)CCCCN1Cc2ccccc2C(CNC2CCCCC2)C1c1ccc(-c2ccccc2)cc1 (stereo not shown) [TRG 2411-19]
IC50 [1]: 0.49 µM

CNC(CN)CCCCN1Cc2ccccc2C(CNC2CCCCC2)C1c1ccc(F)c(Br)c1 (stereo not shown) [TRG 2405-216]
% Disp. of 125I-HP 467 (first of duplicate): 78.9%
% Disp. of 125I-HP 467 (second of duplicate): 67.9%

NCCN1Cc2ccccc2C(CNC2CCCCC2)C1c1c(F)cccc1F (stereo not shown) [TRG 2405-11]
% Disp. MC-1 10 μM (first of duplicate): 45.1%
% Disp. MC-1 10 μM (second of duplicate): 27%

CNC(CN)CN1Cc2ccccc2C(CNC2CCCCC2)C1c1ccc(OC)cc1 (stereo not shown) [TRG 2405-150]
% Disp. MC-1 10 μM (first of duplicate): 37.6%
% Disp. MC-1 10 μM (second of duplicate): 54.7%

CNC(CN)CN1Cc2ccccc2C(CNC2CCCCC2)C1c1ccc(OC)c(C)c1 (mixture of isomers) [TRG 2405-136]
% Disp. MC-1 10 μM (first of duplicate): 49%
% Disp. MC-1 10 μM (second of duplicate): 51.8%

NCC(CCCCN1Cc2ccccc2C(CNCCc2ccccc2)C1c1ccc(-c2ccccc2)cc1)NCC1CCCCC1 (stereo not shown) [TRG 2411-12]
IC50 [1]: 0.73 µM

Cc1cc(C2C(CNC3CCCCC3)c3ccccc3CN2CCN)cc(C)c1O (stereo not shown) [TRG 2405-32]
% Disp. MC-1 10 μM (first of duplicate): 10.1%
% Disp. MC-1 10 μM (second of duplicate): 38.3%

CCCCCc1ccc(C2C(CNCCc3ccccc3)c3ccccc3CN2CCCCC(CN)NCc2ccccc2)cc1 (stereo not shown) [TRG 2412-15]
IC50 [2]: 0.75 µM

CCNc1ccc(C2C(CN)c3ccccc3CN2CCCC[C@@H](CN)NCCc2ccc(Br)cc2)cc1 (stereo partly shown) [TRG 2411-64]
IC50 [1]: 0.48 µM

CNC(CN)CCCCN1Cc2ccccc2C(CNC2CCCCC2)C1c1ccc(F)c(F)c1F (stereo not shown) [TRG 2405-186]
% Disp. of 125I-HP 467 (first of duplicate): 62.7%
% Disp. of 125I-HP 467 (second of duplicate): 52.7%

CCCCCNc1ccc(C2C(CNCCc3ccccc3)c3ccccc3CN2CCCC(CN)NCc2ccccc2)cc1 (stereo not shown) [TRG 2412-18]
IC50 [2]: 0.19 µM

CCCCOc1ccc(C2C(CNCCc3ccccc3)c3ccccc3CN2CCCC(CN)NCc2ccccc2)cc1 (stereo not shown) [TRG 2412-27]
IC50 [2]: 0.25 µM

CNC(CN)CCCCN1Cc2ccccc2C(CNC2CCCCC2)C1c1ccc2c(c1)OCCO2 (mixture of isomers) [TRG 2405-183]
% Disp. of 125I-HP 467 (first of duplicate): 58.9%
% Disp. of 125I-HP 467 (second of duplicate): 64.1%

CCCCNc1ccc(C2C(CN)c3ccccc3CN2CCCC(N)CN)cc1 (stereo not shown) [TRG 2411-216]
IC50 [2]: 0.11 µM

CN(C)CCCOc1ccc(C2C(CNC3CCCCC3)c3ccccc3CN2CCN)cc1 (stereo not shown) [TRG 2405-54]
% Disp. MC-1 10 μM (first of duplicate): 1.3%
% Disp. MC-1 10 μM (second of duplicate): 9%

CNC(CNC(CN)CCCN1Cc2ccccc2C(CN)C1c1ccc(-c2ccccc2)cc1)Cc1ccccc1 (stereo not shown) [TRG 2411-144]
IC50 [1]: 1.22 µM

NCCN1Cc2ccccc2C(CNC2CCCCC2)C1c1ccc([N+](=O)[O-])c(O)c1 (stereo not shown) [TRG 2405-70]
% Disp. MC-1 10 μM (first of duplicate): 19.9%
% Disp. MC-1 10 μM (second of duplicate): 46.7%

CNC(C)CNC(CN)CCCN1Cc2ccccc2C(CNCCc2ccccc2)C1c1ccc(-c2ccccc2)cc1 (stereo not shown) [TRG 2411-119]
IC50 [1]: 0.37 µM

CNC(CN)CN1Cc2ccccc2C(CNC2CCCCC2)C1c1ccc(Oc2ccccc2)cc1 (stereo not shown) [TRG 2405-162]
% Disp. MC-1 10 μM (first of duplicate): 71%
% Disp. MC-1 10 μM (second of duplicate): 59.6%

CNC(CN)CN1Cc2ccccc2C(CNC2CCCCC2)C1c1ncc[nH]1 (stereo not shown) [TRG 2405-108]
% Disp. MC-1 10 μM (first of duplicate): 46%
% Disp. MC-1 10 μM (second of duplicate): 46.6%

CCNc1ccc(C2C(CN)c3ccccc3CN2CCCCC(CN)NCCNC)cc1 (stereo not shown) [TRG 2413-3]
IC50 [2]: 1.56 µM

CCn1c2ccccc2c2cc(C3C(CNC4CCCCC4)c4ccccc4CN3CCCCC(CN)NC)ccc21 (stereo not shown) [TRG 2405-263]
% Disp. of 125I-HP 467 (first of duplicate): 61.6%
% Disp. of 125I-HP 467 (second of duplicate): 65.3%

CNC(CN)CCCCN1Cc2ccccc2C(CNC2CCCCC2)C1c1cc(OC)cc(OC)c1 (stereo not shown) [TRG 2405-211]
% Disp. of 125I-HP 467 (first of duplicate): 69.9%
% Disp. of 125I-HP 467 (second of duplicate): 69%

CNC(CN)CCCCN1Cc2ccccc2C(CNC2CCCCC2)C1c1ccc(F)cc1 (stereo not shown) [TRG 2405-245]
% Disp. of 125I-HP 467 (first of duplicate): 56.6%
% Disp. of 125I-HP 467 (second of duplicate): 56.8%

NCCN1Cc2ccccc2C(CNC2CCCCC2)C1c1cccc2c1OCO2 (stereo not shown) [TRG 2405-8]
% Disp. MC-1 10 μM (first of duplicate): 0%
% Disp. MC-1 10 μM (second of duplicate): 26.1%

CNC(CN)CN1Cc2ccccc2C(CNC2CCCCC2)C1c1ccncc1 (stereo not shown) [TRG 2405-164]
% Disp. MC-1 10 μM (first of duplicate): 24.7%
% Disp. MC-1 10 μM (second of duplicate): 33.5%

CNC(CN)CCCN1Cc2ccccc2C(CN)C1c1ccc(-c2ccccc2)cc1 (stereo not shown) [TRG 2411-137]
IC50 [1]: 1.62 µM

NCC(CCCN1Cc2ccccc2C(CN)C1c1ccc([N+](=O)[O-])cc1)NCCc1ccccc1 (stereo not shown) [TRG 2413-15]
IC50 [2]: 1.92 µM

CCCCNc1ccc(C2C(CNC3CCCCC3)c3ccccc3CN2CCCC(N)CN)cc1 (stereo not shown) [TRG 2411-202]
IC50 [2]: 0.22 µM

NCCN1Cc2ccccc2C(CNC2CCCCC2)C1c1cnc2ccccc2c1 (stereo not shown) [TRG 2405-52]
% Disp. MC-1 10 μM (first of duplicate): 42.4%
% Disp. MC-1 10 μM (second of duplicate): 42.3%

CCNc1ccc(C2C(CNCCc3ccccc3)c3ccccc3CN2CCCCC(CN)NCCC2CCCCC2)cc1 (stereo not shown) [TRG 2411-47]
IC50 [1]: 0.22 µM

CNCCNC(CN)CCCCN1Cc2ccccc2C(CNCCc2ccccc2)C1c1ccc(-c2ccccc2)cc1 (stereo not shown) [TRG 2411-4]
IC50 [1]: 0.7 µM

CNC(CN)CN1Cc2ccccc2C(CNC2CCCCC2)C1c1cccc(C(F)(F)F)c1 (stereo not shown) [TRG 2405-125]
% Disp. MC-1 10 μM (first of duplicate): 59.1%
% Disp. MC-1 10 μM (second of duplicate): 58.4%

CCn1c2ccccc2c2cc(C3C(CNC4CCCCC4)c4ccccc4CN3CCN)ccc21 (stereo not shown) [TRG 2405-83]
% Disp. MC-1 10 μM (first of duplicate): 39.1%
% Disp. MC-1 10 μM (second of duplicate): 46.9%

CNCCNC(CN)CCCN1Cc2ccccc2C(CN)C1c1ccc(-c2ccccc2)cc1 (stereo not shown) [TRG 2411-140]
IC50 [1]: 1.36 µM

NCC(CCCCN1Cc2ccccc2C(CN)C1c1ccc(-c2ccccc2)cc1)NCC1CCCCC1 (stereo not shown) [TRG 2411-34]
IC50 [1]: 0.35 µM

CNC(CN)CCCCN1Cc2ccccc2C(CNC2CCCCC2)C1c1ccc(OCCCN(C)C)cc1 (stereo not shown) [TRG 2405-234]
% Disp. of 125I-HP 467 (first of duplicate): 52.9%
% Disp. of 125I-HP 467 (second of duplicate): 37.7%

CNC(CN)CN1Cc2ccccc2C(CNC2CCCCC2)C1c1ccccc1F (stereo not shown) [TRG 2405-106]
% Disp. MC-1 10 μM (first of duplicate): 40.7%
% Disp. MC-1 10 μM (second of duplicate): 44.7%

CCn1c2ccccc2c2cc(C3C(CNC4CCCCC4)c4ccccc4CN3CC(CN)NC)ccc21 (stereo not shown) [TRG 2405-173]
% Disp. of 125I-HP 467 (first of duplicate): 67%
% Disp. of 125I-HP 467 (second of duplicate): 59.3%

CCCCNc1ccc(C2C(CNCCc3ccccc3)c3ccccc3CN2CCCCC(CN)NCCN)cc1 (stereo not shown) [TRG 2411-85]
IC50 [1]: 0.31 µM

CCCCCc1ccc(C2C(CNCCc3ccccc3)c3ccccc3CN2CCCC(CN)NC)cc1 (stereo not shown) [TRG 2412-28]
IC50 [2]: 0.27 µM

NCC(N)CCCCN1Cc2ccccc2C(CN)C1c1ccc(-c2ccccc2)cc1 (stereo not shown) [TRG 2411-23]
IC50 [1]: 0.59 µM

COc1cc(OC)cc(C2C(CNC3CCCCC3)c3ccccc3CN2CCN)c1 (stereo not shown) [TRG 2405-31]
% Disp. MC-1 10 μM (first of duplicate): 40.7%
% Disp. MC-1 10 μM (second of duplicate): 48.5%

CNC(CN)CCCCN1Cc2ccccc2C(CNC2CCCCC2)C1c1cccs1 (stereo not shown) [TRG 2405-203]
% Disp. of 125I-HP 467 (first of duplicate): 58.1%
% Disp. of 125I-HP 467 (second of duplicate): 49%

CNC(CN)CN1Cc2ccccc2C(CNC2CCCCC2)C1c1ccc(N(C)C)cc1 (stereo not shown) [TRG 2405-145]
% Disp. MC-1 10 μM (first of duplicate): 41.2%
% Disp. MC-1 10 μM (second of duplicate): 49.7%

CNC(C)CNC(CN)CCCCN1Cc2ccccc2C(CNCCc2ccccc2)C1c1ccc(-c2ccccc2)cc1 (stereo not shown) [TRG 2411-6]
IC50 [1]: 0.47 µM

NCC(CCCN1Cc2ccccc2C(CNCCc2ccccc2)C1c1ccc(-c2ccccc2)cc1)NCC1CCCCC1 (stereo not shown) [TRG 2411-125]
IC50 [1]: 0.82 µM
